One test addresses T1, KRASwt (Homo sapiens, UniProt P01116).
T1 construct: made in house; host or cells: E. coli BL21 (DE3)
Briefly: Bio-Biochem-PPI-HTRF Ras-SOS1 interaction assay (KRAS wt). Format: biochemical. The settings on record: 5 nM. An outline of the steps: (§1)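 Inhibition of His-hSOS1 binding to GST-tagged wild-type or G12D K-Ras is read as HTRF ratio (665/620 nm) following incubation of about 10 minutes or longer, and IC50 values are fitted from duplicate six-point titrations.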
(In general: In TR-FRET formats the signal depends on donor and acceptor labels being close together.)

For another test, the target named is T2, KRASG12D (Homo sapiens, UniProt P01116, G12D).
T2 construct: made in house; host or cells: E. coli BL21 (DE3)
T2 sequence (P01116 1-188 isoform P01116-2 G12D): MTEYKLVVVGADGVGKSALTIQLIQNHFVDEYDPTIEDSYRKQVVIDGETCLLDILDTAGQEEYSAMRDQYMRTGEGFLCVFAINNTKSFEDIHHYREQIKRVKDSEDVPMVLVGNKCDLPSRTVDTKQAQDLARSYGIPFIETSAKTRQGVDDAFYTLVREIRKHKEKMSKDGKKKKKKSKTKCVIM
As to the kind of experiment: Bio-Biochem-PPI-HTRF Ras-SOS1 interaction assay (KRAS G12D). Format: biochemical. The conditions noted are these: 5 nM. An outline of the steps:
as §1

Each structure is given as a SMILES string. pIC50: −log10 of the molar value.

T1 sequence (P01116 1-188 isoform P01116-2): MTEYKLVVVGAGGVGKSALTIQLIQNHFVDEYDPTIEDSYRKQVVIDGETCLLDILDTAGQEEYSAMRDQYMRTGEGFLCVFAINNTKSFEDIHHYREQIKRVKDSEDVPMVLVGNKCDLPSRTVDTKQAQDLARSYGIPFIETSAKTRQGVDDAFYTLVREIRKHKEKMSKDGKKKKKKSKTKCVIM

For the compound `C#Cc1c(F)ccc2cc(O)cc(-c3ncc4c(N5CCCC6(CN(C(=O)[C@@H]7C[C@H]7C#N)C6)C5)nc(O[C@@H](C)[C@@H]5CCCN5C)nc4c3F)c12` [compound 113, (1R,2R)-2-(6-(7-(8-ethynyl-7-fluoro-3-hydroxynaphthalen-1-yl)-8-fluoro-2-((S)-1-((S)-1-methylpyrrolidin-2-yl)ethoxy)pyrido[4,3-d]pyrimidin-4-yl)-2,6-diazaspiro[3.5]nonane-2-carbonyl)cyclopropane-1-carbonitrile], the negative-log IC50 (pIC50) on KRASwt and at KRASG12D was above 5.30 each time.

Consider `N#Cc1c(N)sc2c(F)ccc(-c3c(Cl)cc4c(N5CCCCC6(CN(C(=O)CCC(F)F)C6)C5)nc(OC[C@@]56CCCN5C[C@H](F)C6)nc4c3F)c12` [compound 337, 2-amino-4-(6-chloro-4-(2-(4,4-difluorobutanoyl)-2,6-diazaspiro[3.6]decan-6-yl)-8-fluoro-2-(((2R,7aS)-2-fluorotetrahydro-1H-pyrrolizin-7a(5H)-yl)methoxy)quinazolin-7-yl)-7-fluorobenzo[b]thiophene-3-carbonitrile], for which the negative-log IC50 (pIC50) against KRASwt and against KRASG12D was above 5.30 in each case.

Take `N#Cc1c(N)sc2c(F)ccc(-c3c(Cl)cc4c(N5CCCCC6(CN(C(=O)C(F)F)C6)C5)nc(OC[C@@]56CCCN5C[C@H](F)C6)nc4c3F)c12` [compound 317, 2-amino-4-(6-chloro-4-(2-(2,2-difluoroacetyl)-2,6-diazaspiro[3.6]decan-6-yl)-8-fluoro-2-(((2R,7aS)-2-fluorotetrahydro-1H-pyrrolizin-7a(5H)-yl)methoxy)quinazolin-7-yl)-7-fluorobenzo[b]thiophene-3-carbonitrile]: the pIC50 against KRASwt and against KRASG12D was above 5.30 each time.

Take `N#Cc1c(N)sc2c(F)ccc(-c3c(Cl)cc4c(N5CCCCC6(CN(C(=O)CC7(C#N)CC7)C6)C5)nc(OC[C@@]56CCCN5C[C@H](F)C6)nc4c3F)c12` [compound 280, 2-amino-4-(6-chloro-4-(2-(2-(1-cyanocyclopropyl)acetyl)-2,6-diazaspiro[3.6]decan-6-yl)-8-fluoro-2-(((2R,7aS)-2-fluorotetrahydro-1H-pyrrolizin-7a(5H)-yl)methoxy)quinazolin-7-yl)-7-fluorobenzo[b]thiophene-3-carbonitrile]: the pIC50 against KRASwt and at KRASG12D was above 5.30 each time.

`CN(C)C/C=C/C(=O)N1CC2(CCCN(c3nc(OC[C@@]45CCCN4C[C@H](F)C5)nc4c(F)c(-c5ccc(F)c6sc(N)nc56)c(Cl)cc34)C2)C1` [compound 181, (E)-1-(6-(7-(2-amino-7-fluorobenzo[d]thiazol-4-yl)-6-chloro-8-fluoro-2-(((2R,7aS)-2-fluorotetrahydro-1H-pyrrolizin-7a(5H)-yl)methoxy)quinazolin-4-yl)-2,6-diazaspiro[3.5]nonan-2-yl)-4-(dimethylamino)but-2-en-1-one]: the pIC50 against KRASwt and on KRASG12D was above 5.30 in each case.

As to `N#Cc1c(N)sc2c(F)ccc(-c3c(Cl)cc4c(N5CCC(CO)CC6(CN(C(=O)[C@@H]7CC7(F)F)C6)C5)nc(OC[C@@]56CCCN5C[C@H](F)C6)nc4c3F)c12` (stereo partly drawn) [compound 332, 2-amino-4-(6-chloro-4-(2-((S)-2,2-difluorocyclopropane-1-carbonyl)-9-(hydroxymethyl)-2,6-diazaspiro[3.6]decan-6-yl)-8-fluoro-2-(((2R,7aS)-2-fluorotetrahydro-1H-pyrrolizin-7a(5H)-yl)methoxy)quinazolin-7-yl)-7-fluorobenzo[b]thiophene-3-carbonitrile], the pIC50 at KRASwt and against KRASG12D was above 5.30 each time.

Take `N#Cc1c(N)sc2c(F)ccc(-c3c(Cl)cc4c(N5CCCCC6(CN(C(=O)C7CC(C#N)C7)C6)C5)nc(OC[C@@]56CCCN5C[C@H](F)C6)nc4c3F)c12` (stereo partly drawn) [compound 294, 2-amino-4-(6-chloro-4-(2-(3-cyanocyclobutane-1-carbonyl)-2,6-diazaspiro[3.6]decan-6-yl)-8-fluoro-2-(((2R,7aS)-2-fluorotetrahydro-1H-pyrrolizin-7a(5H)-yl)methoxy)quinazolin-7-yl)-7-fluorobenzo[b]thiophene-3-carbonitrile]: the pIC50 at KRASwt and on KRASG12D was above 5.30 each time.

Regarding `Nc1nc2c(-c3c(Cl)cc4c(N5CCC6(CC5)CN(C(=O)c5nc[nH]n5)C6)nc(OC[C@@]56CCCN5C[C@H](F)C6)nc4c3F)ccc(F)c2s1` [compound 248, (7-(7-(2-amino-7-fluorobenzo[d]thiazol-4-yl)-6-chloro-8-fluoro-2-(((2R,7aS)-2-fluorotetrahydro-1H-pyrrolizin-7a(5H)-yl)methoxy)quinazolin-4-yl)-2,7-diazaspiro[3.5]nonan-2-yl) (1H-1,2,4-triazol-3-yl)methanone], the pIC50 against KRASwt and against KRASG12D was above 5.30 in each case.

Regarding `N#Cc1c(N)sc2c(F)ccc(-c3c(Cl)cc4c(N5CCCCC6(CNC6)C5)nc(OC[C@@]56CCCN5C[C@H](F)C6)nc4c3F)c12` [compound 149, 2-amino-4-(6-chloro-8-fluoro-2-(((2R,7aS)-2-fluorotetrahydro-1H-pyrrolizin-7a(5H)-yl)methoxy)-4-(2,6-diazaspiro[3.6]decan-6-yl)quinazolin-7-yl)-7-fluorobenzo[b]thiophene-3-carbonitrile], the pIC50 at KRASwt and at KRASG12D was above 5.30 throughout.

Regarding `C[C@H](O)C(=O)N1CC2(CCCCN(c3nc(OC[C@@]45CCCN4C[C@H](F)C5)nc4c(F)c(-c5ccc(F)c6sc(N)c(C#N)c56)c(Cl)cc34)C2)C1` [compound 318, 2-amino-4-(6-chloro-8-fluoro-2-(((2R,7aS)-2-fluorotetrahydro-1H-pyrrolizin-7a(5H)-yl)methoxy)-4-(2-((S)-2-hydroxypropanoyl)-2,6-diazaspiro[3.6]decan-6-yl)quinazolin-7-yl)-7-fluorobenzo[b]thiophene-3-carbonitrile], the pIC50 on KRASwt and on KRASG12D was above 5.30 throughout.

As to `N#Cc1c(N)sc2c(F)ccc(-c3c(Cl)cc4c(N5CCCCC6(CN(C(=O)C7CC7C7CC7)C6)C5)nc(OC[C@@]56CCCN5C[C@H](F)C6)nc4c3F)c12` (stereo partly drawn) [compound 261, 4-(4-(2-([1,1′-bi (cyclopropane)]-2-carbonyl)-2,6-diazaspiro[3.6]decan-6-yl)-6-chloro-8-fluoro-2-(((2R,7aS)-2-fluorotetrahydro-1H-pyrrolizin-7a(5H)-yl)methoxy)quinazolin-7-yl)-2-amino-7-fluorobenzo[b] thiophene-3-carbonitrile], the pIC50 at KRASwt and against KRASG12D was above 5.30 in each case.

With `N#Cc1c(N)sc2c(F)ccc(-c3c(Cl)cc4c(N5CCCC6(CN(C(=O)N7CC(C#N)C7)C6)C5)nc(OC[C@@]56CCCN5C[C@H](F)C6)nc4c3F)c12` [compound 308, 1-(6-(7-(2-amino-3-cyano-7-fluorobenzo[b]thiophen-4-yl)-6-chloro-8-fluoro-2-(((2R,7aS)-2-fluorotetrahydro-1H-pyrrolizin-7a(5H)-yl)methoxy)quinazolin-4-yl)-2,6-diazaspiro[3.5]nonane-2-carbonyl)azetidine-3-carbonitrile], the pIC50 against KRASwt and against KRASG12D was above 5.30 each time.

As to `N#Cc1c(N)sc2c(F)ccc(-c3c(Cl)cc4c(N5CCCCC6(CN(C(=O)C7CCC7(F)F)C6)C5)nc(OC[C@@]56CCCN5C[C@H](F)C6)nc4c3F)c12` (stereo partly drawn) [compound 210, 2-amino-4-(6-chloro-4-(2-(2,2-difluorocyclobutane-1-carbonyl)-2,6-diazaspiro[3.6]decan-6-yl)-8-fluoro-2-(((2R,7aS)-2-fluorotetrahydro-1H-pyrrolizin-7a(5H)-yl)methoxy)quinazolin-7-yl)-7-fluorobenzo[b]thiophene-3-carbonitrile], the pIC50 against KRASwt and against KRASG12D was above 5.30 each time.

As for `N#Cc1c(N)sc2c(F)ccc(-c3c(Cl)cc4c(N5CC(O)CCC6(CN(C(=O)[C@@H]7CC7(F)F)C6)C5)nc(OC[C@@]56CCCN5C[C@H](F)C6)nc4c3F)c12` (stereo partly drawn) [compound 275, 2-amino-4-(6-chloro-4-(2-((S)-2,2-difluorocyclopropane-1-carbonyl)-8-hydroxy-2,6-diazaspiro[3.6]decan-6-yl)-8-fluoro-2-(((2R,7aS)-2-fluorotetrahydro-1H-pyrrolizin-7a(5H)-yl)methoxy)quinazolin-7-yl)-7-fluorobenzo[b]thiophene-3-carbonitrile], the pIC50 against KRASwt and against KRASG12D was above 5.30 in each case.

Take `Nc1nc2c(-c3c(Cl)cc4c(N5CCOC6(C5)CN(S(=O)(=O)F)C6)nc(OC[C@@]56CCCN5C[C@H](F)C6)nc4c3F)ccc(F)c2s1` [compound 179, 8-(7-(2-amino-7-fluorobenzo[d]thiazol-4-yl)-6-chloro-8-fluoro-2-(((2R,7aS)-2-fluorotetrahydro-1H-pyrrolizin-7a(5H)-yl)methoxy)quinazolin-4-yl)-5-oxa-2,8-diazaspiro[3.5]nonane-2-sulfonyl fluoride]: the negative-log IC50 (pIC50) against KRASwt was above 5.30; against KRASG12D, at most 5.30.

As to `N#Cc1c(N)sc2c(F)ccc(-c3c(Cl)cc4c(N5CCOC6(CN(C(=O)c7cn[nH]n7)C6)C5)nc(OC[C@@]56CCCN5C[C@H](F)C6)nc4c3F)c12` [compound 163, 4-(4-(2-(2H-1,2,3-triazole-4-carbonyl)-5-oxa-2,8-diazaspiro[3.5]nonan-8-yl)-6-chloro-8-fluoro-2-(((2R,7aS)-2-fluorotetrahydro-1H-pyrrolizin-7a(5H)-yl)methoxy)quinazolin-7-yl)-2-amino-7-fluorobenzo[b]thiophene-3-carbonitrile], the pIC50 at KRASwt and against KRASG12D was above 5.30 each time.

The term pIC50 denotes the IC50 on a negative log10 scale, so that one unit is a factor of ten. A high value points to a low IC50.

The values are drawn from patent US20240109918A1, “HETEROCYCLIC COMPOUNDS AND USES THEREOF” (Kumquat Biosciences Inc., priority 2022, published 2024).
